Results as given in US20200206198A1, “CFTR CHANNEL ACTIVATOR FOR USE IN THE TREATMENT AND/OR PREVENTION OF GLUTEN SENSITIVITY CONDITIONS” (priority 2017, published 2020).

Target: T1, TG2 (Homo sapiens, UniProt P21980)
T1 construct: Immunoprecipitations of endogenous proteins were performed on 500 μg of lysates from Caco-2 cells; host or cells: Caco-2
T1 sequence (P21980 1-687): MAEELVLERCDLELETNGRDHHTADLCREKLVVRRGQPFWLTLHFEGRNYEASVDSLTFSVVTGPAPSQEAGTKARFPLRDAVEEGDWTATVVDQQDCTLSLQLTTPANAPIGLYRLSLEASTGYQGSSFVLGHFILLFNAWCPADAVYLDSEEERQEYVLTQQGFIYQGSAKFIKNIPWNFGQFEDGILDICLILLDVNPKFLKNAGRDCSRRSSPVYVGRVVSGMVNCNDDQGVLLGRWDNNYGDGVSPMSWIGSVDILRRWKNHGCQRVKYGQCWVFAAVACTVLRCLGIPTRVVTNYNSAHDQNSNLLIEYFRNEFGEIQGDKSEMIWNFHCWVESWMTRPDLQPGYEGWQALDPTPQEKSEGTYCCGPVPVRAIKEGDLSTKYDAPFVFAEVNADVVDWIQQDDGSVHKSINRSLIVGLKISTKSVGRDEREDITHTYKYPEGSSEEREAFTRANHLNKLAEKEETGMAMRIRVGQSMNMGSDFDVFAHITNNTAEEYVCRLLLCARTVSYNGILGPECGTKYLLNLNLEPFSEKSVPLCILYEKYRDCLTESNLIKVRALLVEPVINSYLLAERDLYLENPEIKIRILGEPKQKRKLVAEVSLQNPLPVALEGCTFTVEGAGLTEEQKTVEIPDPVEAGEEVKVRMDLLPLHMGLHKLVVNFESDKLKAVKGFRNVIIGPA
Assay: TG2 interaction and TG2 activity in Caco-2 cells
Type: cell-based
Procedure: Human colon adenocarcinoma-derived Caco-2 and T84 cells were obtained from the ATCC. Cells were maintained in T25 flask in Modified Eagle Medium (MEM) for Caco-2, or Ham's F12+DMEM (1:1) for T84, supplemented with 10% fetal bovine serum (FBS), 2 mM Glutamine+1% Non Essential Amino Acids (NEAA) and the antibiotics penicillin\streptomycin (100 units/ml) (all reagents from Lonza) (Luciani, A., et al. 2010. Cells were grown in Transwells (Corning, 3470 or 3460) under the normal condition (Luciani, A., et al. 2012). Briefly, 8×10^4 or 5×10^5 cells were seeded in 6.5-mm diameter or 12-mm diameter, respectively, and grown until the RT reached 800 to 1,200 Ω·cm2. Transwells with a pore size of 0.4 μm were used. Medium in both the apical and basolateral chambers was changed every other day. Cells were treated with 20 μg/ml of either α-gliadin peptide P31-43 or […] or scrambled PGAV or modified P31-43 either biotin-tagged or not, for different time point (from 1 h short challenge up to 24 h). Cells were also treated with 50 or 100 μg/ml of P57-68 or PGAV peptides for 3 h. Caco-2 or T84 cells were also treated with: CFTR potentiators VX-770 (10 μM) or VX-532 (20 μM) (Selleck chemicals) or Genistein (10 μM) (Sigma-Aldrich) or in presence or absence of CFTR inhibitor172 (CFTRinh172, 20 μM) or 3-methyl-adenine (3-MA, 20 μM) (Calbiochem), Z-DON (20 nM, Zedira) or BAPTA-AM (10 μM, Calbiochem).
The whole lysate or membrane fraction proteins of cell lines and mice intestine homogenates were obtained from treated and untreated cells or mice as described. The equal amount of protein were resolved by SDS-PAGE gel and blotted with antibodies against: SQSTM1, (Sigma Aldrich, 108k4767) 1:1000, PPARγ (Santa Cruz Biotechnology, sc7273) 1:500, BECN1 (Abcam, ab58878) 1:1000, CFTR clone M3A7 (Abcam, ab4067) 1:500, phospho-ERK1/2 (php42/44, Cell Signaling Technology, #91101) 1:1000, UVRAG (Santa Cruz Biotechnology sc8215) 1:1000, NHERF-1 (BD, 611161) 1:1000, EZRIN (BD, 610603) 1:1000, hVps34 (SigmaV9764) 1:300, biotin (Abcam, ab1227) 1:2000, PKAr2a (BD, 610625) 1:500, Ubiquitin (Cell Signaling clone P4D1, #3936) 1:1000, CHIP (Calbiochem PC711) 1:500, Caspase-1 p10 (M-20) (Santa Cruz Biotechnology, sc-514) 1:200, NLRP3 (Abcam, ab4207), 1:500, IDO1 (monoclonal; cv152) 1:1000^[80], used as primary antibodies. Normalization was performed by probing the membrane with anti-β-actin (Cell Signaling, #4970) 1:1000, anti-Gapdh (Sigma-Aldrich, G8795) 1:1000 and anti-flottilin (Abcam ab15148) 1:1000 antibodies. Immunoprecipitations of endogenous proteins were performed on 500 μg of lysates from Caco-2 cells. The proteins were incubated for 12-18 h at 4° C. with 10 ug\ml of specific antibody followed by the addition of Protein A/G-agarose beads for 4 h at 4° C. The beads were then washed three times with lysis buffer and Laemmli's sample buffer was added to the samples. The membranes were then blotted with: CFTR clone CF3 (Abcam, ab2784) 1:1000, TG2 (clone CUB7402; NeoMarkers) 1:1000, CHIP (Calbiochem PC711) 1:500, Ubiquitin (Cell Signaling clone P4D1 3936), isopeptide (Abcam 422) 1:1000, PKAR2 (BD 610625) 1:500.
For detection of complex with biotnylated-P31-43 or immune-complex of glutamime-lysine bonds, the beads were resolved in non-reducing and non-denaturating conditions, and then blotted with Streptavidin-HRP (Sigma 52438) 1:3000 or anti-biotin (Abcam ab2103) 1:2500 and anti-isopeptide (Abcam 422) 1:1000.
TG2 enzymatic activity in Caco-2, treated as described above, was detected: 1) by incubating unfixed sections with biotin-mono-dansylcadaverine (MDC, 10 mM, Molecular Probe) for 1 h at room temperature and then stained with Alexa-fluor488-Streptavidin, as previously described (JI2008/2009) or 2) or by incorporation of 5(biotinamido)pentylamines (BAP) into protein substrates. For BAP-incorporation, 2 mM BAP (Soltec Ventures, B110) were directly added into the medium together with the indicated treatments. […]

Row | Compound | effect on P31-43-induced interaction of TG2 and CFTR (Caco-2 cells) | effect on P31-43-induced TG2 activation (Caco-2 cells preincubated with VX-770) | impact on TG2-mediated transamidation reactions (Caco-2 cells pulsed with Ca2+) | TG2-mediated glutamine-lysine bonds in CFTR immunoprecipitates (Caco-2 cells) | covalent interaction with TG2 (Caco-2 cells, shortly upon challenge) | interaction between TG2 and CFTR by co-immunoprecipitation (cells incubated with peptide)
1 | CC(C)(C)c1cc(C(C)(C)C)c(NC(=O)c2c[nH]c3ccccc3c2=O)cc1O [VX-770, N-(2,4-di-tert-butyl-5-hydroxyphenyl)-4-oxo-1,4-dihydroquinoline-3-carboxamide] | abolished the P31-43-induced interaction of TG2 and CFTR | negated the capability of P31-43 5 to induce TG2 activation | has no impact on TG2mediated transamidation reactions |  |  | 
2 | α-gliadin peptide LGQQQPFPPQQPY (SEQ ID 1), induces an enterocyte stress response (P31-43 sequence of alpha-gliadin) |  |  |  | induced the formation of TG2-mediated glutamime-lysine bonds | covalently interacted with TG2 | stimulated the interaction between TG2 and CFTR
